{"source": "patent US20180201651A1", "about": "“PHARMACEUTICAL COMPOSITION THAT IS ANTICANCER AND SUPPRESSES CANCER METASTASIS, CONTAINING, AS ACTIVE INGREDIENT, FUSION PEPTIDE SIMULTANEOUSLY TARGETING CANCER CELL AND TUMOR ASSOCIATED MACROPHAGE” (Kyungpook National University Industry-Academic Cooperation …, priority 2015, published 2018)", "molecules": {"B1": {"name": "control peptide (NSSSVDK) (peptide)", "peptide": "NSSSVDK", "modifications": "also: Flamma 675 label, position not given here", "notes": "Control peptide"}}, "key": {"IL-10-treated 4T1 cells": {"system": "IL-10-treated 4T1 cells", "test": "IL4RPep-1 binding affinity assay on IL-10-treated versus wild-type 4T1 cells", "set-up": "species or system mouse", "conditions": "FIG. 9A", "method": "Blocking the tumor cells with 1% BSA at room temperature for 30 minutes, the biotin-labeled IL4RPep-1 peptides of various concentrations (1 to 80 μM) were incubated for 1 hour. After washing with PBS, the cells were incubated with Neutravidin HRP (1: 10000) at room temperature for 30 minutes. HRP activity was measured by using the TMB substrate, and the reaction was stopped using 2M sulfuric acid. Absorbance was measured at 450 nm using TECAN microplate reader. Kd values were calculated using Graph Pad Prism 6 software (GraphPad software Inc., La Jolla, La.).\n4T1 cells were cultured using DMEM medium containing 50% of the mouse spleen-derived macrophages which were differentiated into M2 type macrophages. As for the culture medium containing TAM, the debris was removed by centrifugation and strainer prior to use. Cytokine-induced epithelial mesenchymal transition was implemented by culturing the cells with mouse IL-10 and mouse IL-4 for 24 hours or with mouse TFGβ-containing medium for 48 hours. Subsequently, the cells were stained with N-cadherin (a mesenchymal marker), and the expression level of IL-4 receptor was evaluated."}, "IL-4 receptor [1]": {"system": "IL-4 receptor", "test": "Immunofluorescent staining of IL4RPep-1 bound to IL-4 receptors and cells", "assay_type": "cell-based", "method": "In order to test whether the peptides binds to cells, tumor cells were blocked with 1% BSA solution initially, 10 μM FITC-labeled IL4RPep1 peptides of SEQ ID NO: 1 were then incubated at 4° C. for 1 hour. The cells were washed and fixed with 4% PFA, while their nuclei were stained with DAPI.\nTo evaluate the expression level of IL-4 receptor in the cells or tumor tissues, immunostaining was performed on frozen tissue sections or fixed mouse tumor cell lines by using anti-IL-4R, anti-IL13Rα1 and anti-IL2R γC antibodies.\nAfter being washed with PBS, the cells were incubated at room temperature for 1 hour with secondary antibodies. Finally, following nuclear staining with DAPI, the cells were examined by a fluorescence microscope (Zeiss, Germany)."}, "IL-4 receptor [2]": {"biological_target": "T1, IL-4 receptor (Mus musculus, UniProt P16382)", "T1 construct": "from tissue; host or cells: 4T1 tumour tissue in wild-type Balb/c mice (IL4R alpha knockout mice as negative control)", "T1 sequence (P16382 26-810)": "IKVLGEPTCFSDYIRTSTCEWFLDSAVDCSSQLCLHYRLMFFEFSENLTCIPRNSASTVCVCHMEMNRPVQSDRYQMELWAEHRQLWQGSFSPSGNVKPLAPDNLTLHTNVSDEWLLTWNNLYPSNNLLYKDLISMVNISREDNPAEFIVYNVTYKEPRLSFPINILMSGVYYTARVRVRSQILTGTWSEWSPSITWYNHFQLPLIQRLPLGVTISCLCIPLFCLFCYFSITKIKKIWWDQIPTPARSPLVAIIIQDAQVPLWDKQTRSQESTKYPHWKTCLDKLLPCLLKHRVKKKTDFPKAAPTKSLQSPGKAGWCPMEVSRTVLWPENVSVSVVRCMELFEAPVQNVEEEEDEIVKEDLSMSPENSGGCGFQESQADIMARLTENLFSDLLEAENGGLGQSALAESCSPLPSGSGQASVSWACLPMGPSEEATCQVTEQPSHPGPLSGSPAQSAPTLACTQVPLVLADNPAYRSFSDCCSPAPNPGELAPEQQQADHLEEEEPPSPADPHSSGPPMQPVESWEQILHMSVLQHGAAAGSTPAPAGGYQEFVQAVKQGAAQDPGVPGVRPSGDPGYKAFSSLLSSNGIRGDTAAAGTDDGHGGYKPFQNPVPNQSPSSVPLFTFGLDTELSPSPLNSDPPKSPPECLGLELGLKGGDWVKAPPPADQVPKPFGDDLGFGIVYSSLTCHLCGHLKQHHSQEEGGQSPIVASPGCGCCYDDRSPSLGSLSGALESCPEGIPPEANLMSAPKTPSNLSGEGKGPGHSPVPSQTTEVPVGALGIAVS", "test": "In vivo optical imaging and histological analysis of peptide binding in 4T1 tumor cells-transplanted mice", "conditions": "for fluorescence in tumor tissues: Flamma 675-labeled peptide, tail vein", "description": "Female wild-type Balb/c mice were purchased from Orient Bio (Republic of Korea) to prepare IL-4 receptor-deficient mice. Mouse tumor models were produced by subcutaneously injecting 1×10^6 4T1 tumor cells into the flank top skin of the wild-type and IL-4 receptor-deficient mice, respectively. Orthotopic animal models were produced by injecting 1×10^6 4T1 cells into the mammary fat tissue of the mice.\n(§1) The Flamma 675-labeled IL4RPep-1 peptide (SEQ ID NO: 1) and control peptide (NSSSVDK) of SEQ ID NO: 7 were administered via the tail vein of 4T1 tumor cells-transplanted wild-type mice and the IL-4 receptor-deficient mice, respectively. In vivo imaging was conducted using the Optix imaging system (ART Inc., Canada) after one hour and two hours circulation. The mice were sacrificed after imaging, and tumors and organs were then excised for ex vivo imaging.\nFor immunohistochemical analysis, excised tumors were fixed with 4% PFA and dehydrated with 30% sucrose. 8 μm thick slices of the tumor were prepared and their histological structures were evaluated by DAPI staining.\nAdditionally, in order to analyze the tendency of […] of the peptide and the receptor in the tumor tissues, the tumor samples were immunostained with anti-IL4Rα antibodies and F4/80 antibodies, followed by detection with Alexa-488/594-conjugated secondary IgG antibodies (invitrogen)."}, "[3]": {"system": "IL-10-treated 4T1 tumor cells", "test": "Cytotoxicity evaluation (CCK8 kit)", "assay_type": "cell-based, mouse", "conditions": "FIG. 10B", "quoted_text": "(§2) Absorbance was measured at 450 nm, and cytotoxicity was calculated by the following equation:\n(§3) Cell viability=(A sample−A blank/A control−A blank)×100\n(§4) A control=Absorbance value of the well which contains only cells and CCK8 solution"}, "wild-type 4T1 cells": {"system": "wild-type 4T1 cells", "test": "Cytotoxicity evaluation (CCK8 kit)", "assay_type": "cell-based, mouse", "conditions": "FIG. 10A", "quoted_text": "as §2, §3, §4"}, "4T1 tumor": {"system": "4T1 tumor", "test": "In vivo anti-cancer and cancer metastasis inhibitory activity, orthotopic 4T1 tumor model", "set-up": "species or system mouse", "method": "Orthotropic 4T1 tumor model were produced by the implantation of 1×10^6 4T1 cells into the left mammary fat pad of the wild-type Balb/c mouse. Tumor was left to grow until its size reached approximately 100 mm^3, followed by random segregation of mice into separate groups for administration. Mice were separated into a total of six groups with five […] in each group. Peptides ([…] ID NO: 1) and […] fusion polypeptide (SEQ ID NO: 3), respectively) were administered via the tail vein of the mouse at an equimolar concentration (1 mM peptide 200/20 g body weight of mice, administered 3 times a week for 4 weeks). Mice of the other three groups were intraperitoneally administered with 8 mg/kg dosage concentration of paclitaxel once a week, in addition to the administration of the peptides. […] The weight and tumor size of the mice were observed after administration. The tumor size was measured with a digital caliper, and the volume of the tumor was calculated by the following equation: V=(L×W×H)/2 (L: the longest-length, W: Short length, H: height) The mice were sacrificed after the last dose, and metastasis of the tumor into the lungs and liver was evaluated. The excised tumors and organs were fixed in 4% PFA and used for additional immunohistological analysis. Frozen tumor tissues were blocked with a blocking solution of 1 g of BSA, 0.2 g of gelatin and 0.05 g of saponin dissolved in PBS, followed by incubation using primary antibodies for 11⁄2 hours and staining using HRP-labeled secondary antibodies for 45 minutes at room temperature. The stained tissues were exposed using DAB (DAKO) and a contrast dyeing was performed using hematoxylin for 5 minutes at room temperature. Each step moved onto the next one after washing with PBS containing 10% blocking solution. Finally, the tissues were observed by Bright Field Microscopy."}, "[4]": {"system": "M2 type macrophages (tumor-associated macrophages, TAM)", "quoted_text": "as §2, §3, §4"}, "mouse IL-4 receptor": {"biological_target": "T2, mouse IL-4 receptor (mouse, UniProt P16382 26-810)", "T2 construct": "whole, on cells; The target is endogenous receptor on mouse cells, not a purified protein; also called IL4R alpha", "T2 sequence (looked up)": "T1 sequence (P16382 26-810)", "test": "in vivo and ex vivo fluorescence imaging, Flamma 675-labelled peptide, 4T1 tumor-bearing Balb/c mice", "method": "as §1\nIt was evaluated whether the IL4RPep-1 peptide having the amino acid sequence of SEQ ID NO: 1 specifically binds to IL-4 receptor in 4T1 tumor cells-transplanted Balb/c wild-type mice and Balb/c IL-4 receptor-deficient (knockout) mice, respectively. That is, Flamma 675-labeled IL4RPep-1 peptides and control peptides (NSSSVDK, SEQ ID NO: 7) were administered into the tail vein of the mouse, respectively, followed by real time observation for fluorescence intensity."}, "[5]": {"conditions": "4T1-transplanted wild-type Balb/c mice, in vivo and ex vivo"}, "[6]": {"conditions": "frozen tumor sections, antibody staining, versus control group, FIG. 13"}}, "note": "Where no end group is shown, it is not given here."}
{"molecule": "CRKRLDRNC [IL4RPep-1]", "values": [{"measurement": "binding affinity in IL-10-treated 4T1 cells compared with wild-type 4T1 cells", "setting": "IL-10-treated 4T1 cells", "result": "significantly excellent"}, {"measurement": "binding to cells versus expression pattern of IL-4 receptors", "setting": "IL-4 receptor [1]; 4T1, A549, MDA-MB 231, M1 and M2 type Raw 264.7 cells, FITC-labeled peptide 10 μM", "result": "specifically bind to IL-4 receptors"}, {"measurement": "binding pattern to cells versus expression pattern of IL-4 receptors", "setting": "IL-4 receptor [1]; mouse spleen-derived M1 type and M2 type macrophages, FIG. 2A", "result": "the same as the expression pattern of IL-4 receptors"}, {"measurement": "fluorescence in tumor tissues", "setting": "IL-4 receptor [2]; 4T1-transplanted IL-4 receptor-deficient (knockout) Balb/c mice", "result": "no fluorescence was detected"}, {"measurement": "fluorescence in tumor tissues", "setting": "IL-4 receptor [2]; [5]", "result": "strongly detected"}, {"measurement": "peptide binding in excised tumor tissue fragments", "setting": "IL-4 receptor [2]; IL-4 receptor-deficient mice, immunostaining, FIG. 4B", "result": "no binding"}, {"measurement": "peptide staining in excised tumor tissue fragments", "setting": "IL-4 receptor [2]; wild-type mice, immunostaining, FIG. 4A", "result": "in the same pattern as that of IL-4 receptors"}]}
{"molecule": "CRKRLDRNCGGGKLAKLAKKLAKLAK (Fusion peptide) [IL4RPep-1-KLA]", "values": [{"measurement": "cytotoxicity", "setting": "[3]", "result": "excellent cytotoxicity"}, {"measurement": "cytotoxicity", "setting": "wild-type 4T1 cells", "result": "insignificant"}, {"measurement": "tumor growth", "setting": "4T1 tumor; Balb/c mice, tail vein, 3 times a week for 4 weeks, from administration until end of experiment, FIG. 11", "result": "significantly suppressed"}, {"measurement": "CD4(+) T cells in tumor tissue", "setting": "4T1 tumor; [6]", "result": "decreased"}, {"measurement": "CD8 (+) T cells in tumor tissue", "setting": "4T1 tumor; [6]", "result": "increased"}, {"measurement": "CD80(+) macrophages in tumor tissue", "setting": "4T1 tumor; [6]", "result": "increased"}, {"measurement": "F4/80(+) tumor-associated macrophages in tumor tissue", "setting": "4T1 tumor; [6]", "result": "reduced"}, {"measurement": "N-cadherins in tumor tissue", "setting": "4T1 tumor; [6]", "result": "reduced"}, {"measurement": "metastasis of cancer in liver and lungs", "setting": "4T1 tumor; organs excised after final administration, FIGS. 12A and 12B", "result": "not observed at all"}, {"measurement": "cytotoxicity", "setting": "[4]", "result": "excellent cytotoxicity"}, {"measurement": "cytotoxicity", "setting": "M1-type macrophages", "result": "insignificant"}]}
{"molecule": "NSSSVDK [control peptide, reference compound]", "values": [{"measurement": "fluorescence in tumor tissues", "setting": "IL-4 receptor [2]; [5]", "result": "no fluorescence was detected"}]}
{"molecule": "B1", "values": [{"measurement": "binding result", "setting": "mouse IL-4 receptor", "result": "no binding"}]}
